Legend:
serum cholesterol = experiment: hyperlipidemic screen: serum cholesterol levels (modified Liebermann-Burchard reaction); type: in vivo; conditions: male CF1 mice, intraperitoneal, 20 mg/kg day, 1% aqueous carboxymethylcellulose
Protocol: (§1) A hyperlipidemic screen was performed using the compounds of Examples 2 and 4. The compounds were suspended in 1% aqueous carboxymethylcellulose and adimistered to male CF1 mice intraperitoneally for 16 days at a dosage of 20 mg/kg day.
(§2) On days 9 and 16 blood was obtained by tail vein bleeding and the serum separated by centrifugation for 3 min.
(§3) Serum cholesterol levels were determined using a modification of the Liebermann-Burchard reaction, see Ness et al, Clin. Chim. Acta, v. 10, p. 229, (1964). Serum triglicerides were determined using the Fisher, Hycel Triglyceride Test Kit, a commercially available kit.

serum triglyceride = experiment: hyperlipidemic screen: serum triglycerides (Fisher, Hycel Triglyceride Test Kit); type: in vivo; conditions: male CF1 mice, intraperitoneal, 20 mg/kg day, 1% aqueous carboxymethylcellulose
Protocol: as §1, §2, §3

Row | SMILES | Serum cholesterol inhibition %, 9th Day (serum cholesterol) [%] | Serum cholesterol inhibition %, 16th Day (serum cholesterol) [%] | Triglyceride inhibition %, 16th Day (serum triglyceride) [%]
1 | [BH3-][N+](C)(C)CCOC(C)=O [Example 2, 2 (Acetoxyethyl)dimethylamine-borane] | 28 | 41 | 32
2 | [BH3-][N+](C)(C)CCOC(=O)c1ccccc1 [Example 4, 2-(benzoyloxyethyl)dimethylamine-Borane] | 31 | 37 | 31
